Laboratory results: patent US6613317B1, “Volatile attractants for diabrotica species” (priority 1988, dated 2003)
Marks after values point to notes of the source that are not given here.

Key:
NCR [1] = settings: in vivo; cited from earlier work
D. v. virgifera = assay: Sticky trap attraction along hybrid corn, Pomology South Farms (Example 2); assay type: in vivo, Diabrotica virgifera virgifera; settings: 100 mg per trap, n = 4
Description: The candidate lures in all experiments were purchased commercially and exceeded 98% purity. The test chemicals were applied by capillary micropipettes to cotton dental wicks which were attached to the tops of 1.0 liter cylindrical paper cartons covered with TangleTrap™ (Tanglefoot Co., Grand Rapids, Mich.). The sticky trap techniques used were as described in Example 1. Cinnamyl alcohol and para-methoxycinnamaldehyde, which are solids, were dissolved in glass-distilled acetone prior to dosing the cotton wicks. All treatments were applied at a dosage of 100 mg per trap. 1,2,4-trimethoxybenzene, indole, and trans-cinnamaldehyde were mixed in a ratio of 1:1:1, by weight, immediately prior to dosing the cotton wicks. Control traps had untreated cotton wicks. Four replicates of treated and untreated traps were randomly positioned 10 meters apart on top of 1 m high posts along the border of a eight foot wide strip cut through the middle of a 4.05 ha relict prairie at Trelease Woods (ca. two miles northeast of Urbana, Ill.). The field consisted primarily of Andropogon gerardii Vitman (big bluestem) and a variety of composites. The tests were conducted in mid-August of two years and were timed to coincide with the presence of D. cristata and D. barberi adults in the flower heads of Canada thistle (Carduus arvensis Robson). In the second year, several new attractants of D. v. virgifera and D. barberi were tested in Trelease Woods and along the edge of a 0.8 ha field of hybrid corn located at the Pomology South Farms, Urbana, Ill. Attraction of Diabrotica species to the various lures was measured by the mean number of beetles caught after 24-h. On one date in late August of the first year, D. cristata and D. barberi were removed from the traps and sexed in the laboratory. The significance of treatments in all tests was determined by an analysis of variance and the individual means were separated by Duncan's multiple range test (Statistical Package for Social Science, Nie, et al., SPSS: statistical package for the social sciences, 2nd ed. McGraw-Hill, New York (1975). Data were logarithmically transformed for statistical analysis and the means and standard deviations are presented for the untransformed data.

NCR [2] = assay: Limit of response rating of squash blossom volatiles on sticky traps (Example 5); assay type: in vivo, Diabrotica barberi; settings: 24 hour; four replicate traps; 0.01 mg to 200 mg
In short: (§1)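 Adult Diabrotica beetles were tested against cylindrical sticky traps baited with cotton wicks holding 0.01 mg to 200 mg of individual Cucurbita maxima blossom volatiles. Response limit rated by trap catch.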

SCR = assay: as above; assay type: in vivo, Diabrotica undecimpunctata howardi; settings: 24 hour; four replicate traps; 0.01 mg to 200 mg
In short: as §1

[3] = system: western corn rootworm (WCR); assay: Sticky trap attraction in corn, phenylethanol analogues (Example 6); assay type: in vivo, Diabrotica virgifera virgifera; settings: Table 16; 100 mg per trap; four replicates; 24 hour
In short: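 Field sticky traps (TangleTrap-coated cartons) baited with 100 mg or 100 μL test chemical on cotton wicks unless otherwise indicated; untreated wicks as controls. Four replicates per treatment, spaced 10 m apart on 1 m posts at corn field edges. Readout: mean beetles caught per trap after ~24 h; log-transformed ANOVA with Duncan's test, P=0.05.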

SMILES | LR for NCR, most effective volatile attractant yet identified (NCR [1]) | Mean number of D. v. virgifera per stick trap per day (±standard deviation) in corn (D. v. virgifera; August 7) | Mean number of D. v. virgifera per stick trap per day (±standard deviation) in corn (D. v. virgifera; August 18) | Attractant Rating NCR (by limit of response) (NCR [2]) | Attractant Rating SCR (by limit of response) (SCR) | Mean number of WCR per trap (±standard deviation) [3]
C=CCc1ccc(O)c(OC)c1 [XXIV, eugenol] | 10 mg | 10.0 ± 2.9^a per stick trap per day | 2.8 ± 2.9^a per stick trap per day | – | – | –
OCC=Cc1ccccc1 [XVIII, cinnamyl alcohol] | – | 13.8 ± 10.2^a per stick trap per day | 3.3 ± 2.7^a per stick trap per day | +3 (3-10) | +2 (10-30) | 4.0 ± 1.6a per trap
